The NIST ThermoML archive (doi:10.1016/j.fluid.2010.02.037)

Settings: Gas, Oscillating disk viscometry

CCN(CC)CC [triethylamine]
Settings | viscosity [mPa·s]
296.98 K, Amount density=4.2 mol/m3 | 0.006418
297.59 K, Amount density=6.31 mol/m3 | 0.006412
297.87 K, Amount density=8.75 mol/m3 | 0.006427
297.97 K, Amount density=4.2 mol/m3 | 0.006439
297.98 K, Amount density=4.99 mol/m3 | 0.00644
298.33 K, Amount density=4.99 mol/m3 | 0.006437
299.24 K, Amount density=7.52 mol/m3 | 0.006446
299.36 K, Amount density=6.31 mol/m3 | 0.006449
299.67 K, Amount density=2.2 mol/m3 | 0.00649
299.85 K, Amount density=2.2 mol/m3 | 0.006485
300.02 K, Amount density=3.13 mol/m3 | 0.006488
300.11 K, Amount density=8.75 mol/m3 | 0.00646
303.12 K, Amount density=3.13 mol/m3 | 0.006548
310.02 K, Amount density=4.2 mol/m3 | 0.006668
310.29 K, Amount density=6.31 mol/m3 | 0.006654
311.78 K, Amount density=8.75 mol/m3 | 0.006667
313.96 K, Amount density=2.2 mol/m3 | 0.006764
314.61 K, Amount density=4.99 mol/m3 | 0.00675
316.33 K, Amount density=3.13 mol/m3 | 0.006815
324.05 K, Amount density=8.75 mol/m3 | 0.006913
324.26 K, Amount density=3.13 mol/m3 | 0.006981
324.9 K, Amount density=6.31 mol/m3 | 0.006948
324.95 K, Amount density=4.2 mol/m3 | 0.006971
325.84 K, Amount density=4.99 mol/m3 | 0.00698
326.04 K, Amount density=7.52 mol/m3 | 0.006979
326.63 K, Amount density=2.2 mol/m3 | 0.007024
337.84 K, Amount density=6.31 mol/m3 | 0.007205
338.12 K, Amount density=7.52 mol/m3 | 0.007218
338.25 K, Amount density=4.99 mol/m3 | 0.007233
338.31 K, Amount density=3.13 mol/m3 | 0.007259
338.63 K, Amount density=4.2 mol/m3 | 0.007245
338.92 K, Amount density=8.75 mol/m3 | 0.007217
339.05 K, Amount density=2.2 mol/m3 | 0.007275
352.32 K, Amount density=7.52 mol/m3 | 0.007513
352.34 K, Amount density=8.75 mol/m3 | 0.007487
352.41 K, Amount density=6.31 mol/m3 | 0.007492
352.46 K, Amount density=4.99 mol/m3 | 0.007529
352.5 K, Amount density=2.2 mol/m3 | 0.007551
352.91 K, Amount density=3.13 mol/m3 | 0.007557
353.3 K, Amount density=4.2 mol/m3 | 0.007551
365.86 K, Amount density=4.2 mol/m3 | 0.007803
366.42 K, Amount density=8.75 mol/m3 | 0.007782
366.49 K, Amount density=3.13 mol/m3 | 0.007839
366.6 K, Amount density=2.2 mol/m3 | 0.007842
366.72 K, Amount density=7.52 mol/m3 | 0.007801
366.77 K, Amount density=6.31 mol/m3 | 0.007784
367.25 K, Amount density=4.99 mol/m3 | 0.007831
380.54 K, Amount density=4.99 mol/m3 | 0.008109
380.67 K, Amount density=3.13 mol/m3 | 0.008129
381.06 K, Amount density=8.75 mol/m3 | 0.008076
381.14 K, Amount density=2.2 mol/m3 | 0.008137
381.83 K, Amount density=6.31 mol/m3 | 0.008106
385.41 K, Amount density=4.2 mol/m3 | 0.008217
385.75 K, Amount density=7.52 mol/m3 | 0.008206
394.25 K, Amount density=4.2 mol/m3 | 0.008388
394.49 K, Amount density=6.31 mol/m3 | 0.00837
394.51 K, Amount density=4.99 mol/m3 | 0.008386
394.56 K, Amount density=2.2 mol/m3 | 0.008413
394.86 K, Amount density=7.52 mol/m3 | 0.008384
394.95 K, Amount density=3.13 mol/m3 | 0.008423
395.11 K, Amount density=8.75 mol/m3 | 0.008369
408.35 K, Amount density=8.75 mol/m3 | 0.00864
408.97 K, Amount density=6.31 mol/m3 | 0.008662
409.2 K, Amount density=2.2 mol/m3 | 0.008718
409.32 K, Amount density=4.99 mol/m3 | 0.008707
409.67 K, Amount density=7.52 mol/m3 | 0.00869
409.73 K, Amount density=4.2 mol/m3 | 0.008711
412.99 K, Amount density=3.13 mol/m3 | 0.008804
422.67 K, Amount density=8.75 mol/m3 | 0.008939
422.79 K, Amount density=2.2 mol/m3 | 0.008996
423.03 K, Amount density=7.52 mol/m3 | 0.008963
423.25 K, Amount density=4.99 mol/m3 | 0.008991
423.41 K, Amount density=3.13 mol/m3 | 0.009012
423.92 K, Amount density=6.31 mol/m3 | 0.008966
423.93 K, Amount density=4.2 mol/m3 | 0.008988
436.97 K, Amount density=4.2 mol/m3 | 0.009275
437.11 K, Amount density=6.31 mol/m3 | 0.009249
437.42 K, Amount density=2.2 mol/m3 | 0.009296
437.51 K, Amount density=3.13 mol/m3 | 0.009315
437.62 K, Amount density=4.99 mol/m3 | 0.009286
437.76 K, Amount density=8.75 mol/m3 | 0.009255
437.87 K, Amount density=7.52 mol/m3 | 0.009269
451.28 K, Amount density=4.99 mol/m3 | 0.009572
451.45 K, Amount density=8.75 mol/m3 | 0.009534
451.66 K, Amount density=6.31 mol/m3 | 0.009554
451.72 K, Amount density=2.2 mol/m3 | 0.009594
451.74 K, Amount density=3.13 mol/m3 | 0.009599
451.76 K, Amount density=4.2 mol/m3 | 0.009586
451.93 K, Amount density=7.52 mol/m3 | 0.009558
465.92 K, Amount density=6.31 mol/m3 | 0.009846
466.45 K, Amount density=4.99 mol/m3 | 0.009879
466.58 K, Amount density=2.2 mol/m3 | 0.009907
466.63 K, Amount density=8.75 mol/m3 | 0.009851
466.71 K, Amount density=4.2 mol/m3 | 0.009893
469.98 K, Amount density=3.13 mol/m3 | 0.009985
471.39 K, Amount density=7.52 mol/m3 | 0.009972
480.12 K, Amount density=8.75 mol/m3 | 0.01013
480.36 K, Amount density=2.2 mol/m3 | 0.01019
480.43 K, Amount density=4.99 mol/m3 | 0.01017
480.7 K, Amount density=7.52 mol/m3 | 0.01015
480.86 K, Amount density=3.13 mol/m3 | 0.0102
481.09 K, Amount density=6.31 mol/m3 | 0.01015
481.32 K, Amount density=4.2 mol/m3 | 0.01019
495.17 K, Amount density=6.31 mol/m3 | 0.01045
495.29 K, Amount density=4.99 mol/m3 | 0.01047
495.31 K, Amount density=4.2 mol/m3 | 0.01049
495.84 K, Amount density=7.52 mol/m3 | 0.01046
496.21 K, Amount density=8.75 mol/m3 | 0.01046
498.38 K, Amount density=3.13 mol/m3 | 0.01057
498.45 K, Amount density=2.2 mol/m3 | 0.01056
